Results: ChEMBL document CHEMBL4825686, “HTS-based discovery and optimization of novel positive allosteric modulators of the α7 nicotinic acetylcholine receptor” (Eur J Med Chem, 2021)
In brackets after ≈: the same amount, converted by molar mass. Values belong to the molecule of their own block, whether it stands above or below them. Activity calls are given as the source filed them. The rule behind the calls is not given here.

Tests used:
[1] = Drug uptake in NMRI mouse brain at 1 mg/kg, ip measured after 1 hr by HPLC-MS/MS analysis; format: ADME, organism-based; settings: read-out: Ct
[2] = Ratio of drug level in NMRI mouse brain to plasma at 10 mg/kg, ip measured after 1 hr by HPLC-MS/MS analysis; format: ADME, organism-based; settings: read-out: BPR
[3] = Ratio of drug level in NMRI mouse brain to plasma at 3 mg/kg, ip measured after 1 hr by HPLC-MS/MS analysis; format: ADME, organism-based; settings: read-out: BPR
[4] = Plasma concentration in NMRI mouse at 3 mg/kg, ip measured after 1 hr by HPLC-MS/MS analysis; format: ADME, organism-based
[5] = molecular target: T1, Neuronal acetylcholine receptor subunit alpha-7 (Homo sapiens, UniProt P36544); experiment: Positive allosteric modulator activity at human alpha7 nAChR expressed in Flp-In-HEK293 cells co-expressing RIC-3 assessed as potentiation of PNU282987-induced calcium influx measured after 10 mins by FLIPR assay; format: cell-based, Flp-In-293; settings: read-out: EC50
[6] = Drug uptake in NMRI mouse brain at 10 mg/kg, ip measured after 1 hr by HPLC-MS/MS analysis; format: ADME, organism-based; settings: read-out: Ct
[7] = Drug uptake in NMRI mouse brain at 3 mg/kg, ip measured after 1 hr by HPLC-MS/MS analysis; format: ADME, organism-based; settings: read-out: Ct
[8] = Plasma concentration in NMRI mouse at 1 mg/kg, ip measured after 1 hr by HPLC-MS/MS analysis; format: ADME, organism-based
[9] = Ratio of drug level in NMRI mouse brain to plasma at 1 mg/kg, ip measured after 1 hr by HPLC-MS/MS analysis; format: ADME, organism-based; settings: read-out: BPR
Mus musculus [10] = experiment: Cognitive enhancing effect in scopolamine-induced amnesia NMRI mouse model assessed as increase in recognition index at 1 to 10 mg/kg, ip administered 30 mins prior to scopolamine injection by Y-maze test; format: functional, organism-based; settings: dose 1-10 mg/kg
[11] = Plasma concentration in NMRI mouse at 10 mg/kg, ip measured after 1 hr by HPLC-MS/MS analysis; format: ADME, organism-based
[12] = Drug uptake in Wistar rat brain at 3 mg/kg, ip measured after 35 mins by HPLC-MS/MS analysis; format: ADME, organism-based; settings: read-out: Ct
[13] = Mutagenicity in Salmonella typhimurium TA1535 in presence of rat liver S9 fraction by AMES test; format: toxicity, subcellular; settings: salmonella enterica subsp. enterica serovar typhimurium
[14] = Mutagenicity in Salmonella typhimurium TA1537 in presence of rat liver S9 fraction by AMES test; format: toxicity, subcellular; settings: salmonella enterica subsp. enterica serovar typhimurium
[15] = Mutagenicity in Salmonella typhimurium TA100 in absence of rat liver S9 fraction by AMES test; format: toxicity; settings: salmonella enterica subsp. enterica serovar typhimurium
Rattus norvegicus [16] = experiment: Reversal of scopolamine induced amnesia in Lister Hooded rat at 0.3 to 10 mg/kg, po administered 25 mins prior to scopolamine injection and measured after 20 mins by rodent touch screen visual discrimination test; format: functional, organism-based; settings: dose 0.3-10 mg/kg
[17] = Mutagenicity in Salmonella typhimurium TA98 in absence of rat liver S9 fraction by AMES test; format: toxicity; settings: salmonella enterica subsp. enterica serovar typhimurium
[18] = Ratio of drug level in Wistar rat brain to plasma at 1 mg/kg, ip measured after 35 mins by HPLC-MS/MS analysis; format: ADME, organism-based; settings: read-out: BPR
[19] = Ratio of drug level in Wistar rat brain to plasma at 3 mg/kg, ip measured after 35 mins by HPLC-MS/MS analysis; format: ADME, organism-based; settings: read-out: BPR
[20] = Drug uptake in Wistar rat brain at 10 mg/kg, ip measured after 35 mins by HPLC-MS/MS analysis; format: ADME, organism-based; settings: read-out: Ct
Rattus norvegicus [21] = experiment: Cognitive enhancing effect in Hannover Wistar rat assessed as increase in novel object recognition index at 1 to 10 mg/kg, po administered 30 mins prior to recognition trail by novel object recognition test; format: functional, organism-based; settings: dose 1-10 mg/kg
Mus musculus [22] = experiment: Cognitive enhancing effect in ip dosed scopolamine-induced amnesia NMRI mouse model assessed as increase in recognition index administered 30 mins prior to scopolamine injection by Y-maze test; format: functional; settings: 0.5 h, read-out: MED
[23] = Drug uptake in Wistar rat brain at 1 mg/kg, ip measured after 35 mins by HPLC-MS/MS analysis; format: ADME, organism-based; settings: read-out: Ct
[24] = Mutagenicity in Salmonella typhimurium TA100 in presence of rat liver S9 fraction by AMES test; format: toxicity, subcellular; settings: salmonella enterica subsp. enterica serovar typhimurium
[25] = Apparent permeability across apical to basolateral side in vinblastine-treated human Caco-2 cells expressing P-glycoprotein at 1 uM incubated for 120 mins by HPLC analysis; format: ADME
Rattus norvegicus [26] = experiment: Cognitive enhancing effect in po dosed Hannover Wistar rat assessed as increase in novel object recognition index administered 30 mins prior to recognition trail by novel object recognition test; format: functional; settings: 0.5 h, read-out: MED
[27] = Mutagenicity in Escherichia coli WP2 uvrA in absence of rat liver S9 fraction by AMES test; format: toxicity
[28] = Plasma concentration in Wistar rat at 3 mg/kg, ip measured after 35 mins by HPLC-MS/MS analysis; format: ADME, organism-based
[29] = Plasma concentration in Wistar rat at 1 mg/kg, ip measured after 35 mins by HPLC-MS/MS analysis; format: ADME, organism-based
[30] = molecular target: 5-hydroxytryptamine receptor 2B (Homo sapiens) (UniProt P41595); experiment: Binding affinity to human recombinant 5-HT2B receptor assessed as displacement of radioligand at 10 uM by displacement binding assay
[31] = molecular target: Sodium-dependent noradrenaline transporter (Homo sapiens) (UniProt P23975); experiment: Displacement of [125I]RTI55 from human recombinant NET expressed in MDCK cells at 10 uM incubated for 3 hrs by radiometric scintillation counting analysis; format: cell-based
[32] = Mutagenicity in Salmonella typhimurium TA98 in presence of rat liver S9 fraction by AMES test; format: toxicity, subcellular; settings: salmonella enterica subsp. enterica serovar typhimurium
[33] = Mutagenicity in Salmonella typhimurium TA1535 in absence of rat liver S9 fraction by AMES test; format: toxicity; settings: salmonella enterica subsp. enterica serovar typhimurium
[34] = Plasma concentration in Wistar rat at 10 mg/kg, ip measured after 35 mins by HPLC-MS/MS analysis; format: ADME, organism-based
[35] = Mutagenicity in Salmonella typhimurium TA1537 in absence of rat liver S9 fraction by AMES test; format: toxicity; settings: salmonella enterica subsp. enterica serovar typhimurium
[36] = molecular target: Sodium-dependent dopamine transporter (Homo sapiens) (UniProt Q01959); experiment: Displacement of [125I]RTI55 from human recombinant DAT expressed in CHO-S cells at 10 uM incubated for 3 hrs by radiometric scintillation counting analysis; format: cell-based
[37] = Mutagenicity in Escherichia coli WP2 uvrA in presence of rat liver S9 fraction by AMES test; format: toxicity, subcellular
[38] = Ratio of drug level in Wistar rat brain to plasma at 10 mg/kg, ip measured after 35 mins by HPLC-MS/MS analysis; format: ADME, organism-based; settings: read-out: BPR
[39] = molecular target: T1, Neuronal acetylcholine receptor subunit alpha-7; experiment: Positive allosteric modulator activity at human alpha7 nAChR expressed in Flp-In-HEK293 cells co-expressing RIC-3 assessed as potentiation of PNU282987-induced calcium influx at 1 uM measured after 10 mins by FLIPR assay; format: cell-based; settings: Flp-In-293
[40] = Metabolic stability in NMRI mouse liver microsomes assessed as intrinsic clearance at 1 uM measured per mg protein upto 40 mins; format: ADME, Microsome; settings: read-out: CLH
[41] = Kinetic solubility of compound; format: physicochemical; settings: read-out: Kinetic_solubility
[42] = Metabolic stability in Wistar rat liver microsomes assessed as intrinsic clearance at 1 uM measured per mg protein upto 40 mins; format: ADME, Microsome; settings: read-out: CLH
[43] = Metabolic stability in human liver microsomes assessed as intrinsic clearance at 1 uM measured per mg protein upto 40 mins; format: ADME, Microsome; settings: read-out: CLH

T1 sequence (P36544 whole entry): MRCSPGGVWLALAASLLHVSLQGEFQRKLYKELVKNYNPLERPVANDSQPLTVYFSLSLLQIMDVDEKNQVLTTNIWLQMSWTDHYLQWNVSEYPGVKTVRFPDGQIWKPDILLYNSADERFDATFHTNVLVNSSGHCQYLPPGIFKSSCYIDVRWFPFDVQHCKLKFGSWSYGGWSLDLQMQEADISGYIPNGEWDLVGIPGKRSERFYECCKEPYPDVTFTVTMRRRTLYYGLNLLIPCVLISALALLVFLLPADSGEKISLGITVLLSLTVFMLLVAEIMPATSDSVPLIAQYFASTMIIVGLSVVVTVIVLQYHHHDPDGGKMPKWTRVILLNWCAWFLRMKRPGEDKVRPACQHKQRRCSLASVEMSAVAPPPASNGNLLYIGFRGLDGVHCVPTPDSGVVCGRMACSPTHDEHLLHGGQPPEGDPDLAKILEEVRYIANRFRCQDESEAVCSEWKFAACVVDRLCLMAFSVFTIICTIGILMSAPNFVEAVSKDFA
Sequence of Sodium-dependent dopamine transporter (Homo sapiens) (Q01959 whole entry): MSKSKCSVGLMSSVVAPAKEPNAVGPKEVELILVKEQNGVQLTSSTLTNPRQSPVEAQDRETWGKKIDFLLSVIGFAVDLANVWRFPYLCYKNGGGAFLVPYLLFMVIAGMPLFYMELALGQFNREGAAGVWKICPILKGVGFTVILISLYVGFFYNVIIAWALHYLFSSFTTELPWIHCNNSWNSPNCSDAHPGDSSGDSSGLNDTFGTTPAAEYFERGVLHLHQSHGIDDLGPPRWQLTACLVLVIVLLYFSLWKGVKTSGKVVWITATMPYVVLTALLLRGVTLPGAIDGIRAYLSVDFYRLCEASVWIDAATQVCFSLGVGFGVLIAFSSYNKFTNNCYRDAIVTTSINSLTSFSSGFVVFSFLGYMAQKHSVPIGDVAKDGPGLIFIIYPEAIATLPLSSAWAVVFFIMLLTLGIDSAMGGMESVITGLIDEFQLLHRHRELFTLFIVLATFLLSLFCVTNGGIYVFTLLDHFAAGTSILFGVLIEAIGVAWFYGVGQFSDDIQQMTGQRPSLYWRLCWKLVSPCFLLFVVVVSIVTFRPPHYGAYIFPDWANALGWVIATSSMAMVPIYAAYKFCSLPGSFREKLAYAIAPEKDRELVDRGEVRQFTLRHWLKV
Sequence of 5-hydroxytryptamine receptor 2B (Homo sapiens) (P41595 whole entry): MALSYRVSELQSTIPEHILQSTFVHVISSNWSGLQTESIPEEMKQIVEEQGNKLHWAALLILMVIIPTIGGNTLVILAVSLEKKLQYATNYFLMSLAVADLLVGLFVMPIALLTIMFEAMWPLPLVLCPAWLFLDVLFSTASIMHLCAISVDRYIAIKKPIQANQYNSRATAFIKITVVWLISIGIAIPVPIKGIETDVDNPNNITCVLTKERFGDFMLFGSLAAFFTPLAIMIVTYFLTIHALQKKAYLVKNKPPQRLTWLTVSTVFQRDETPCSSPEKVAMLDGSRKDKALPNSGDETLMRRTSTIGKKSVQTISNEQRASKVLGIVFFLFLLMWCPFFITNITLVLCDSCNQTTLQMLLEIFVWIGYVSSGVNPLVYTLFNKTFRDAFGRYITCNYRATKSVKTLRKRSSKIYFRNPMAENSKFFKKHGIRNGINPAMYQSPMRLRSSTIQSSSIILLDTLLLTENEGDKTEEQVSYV
Sequence of Sodium-dependent noradrenaline transporter (Homo sapiens) (P23975 whole entry): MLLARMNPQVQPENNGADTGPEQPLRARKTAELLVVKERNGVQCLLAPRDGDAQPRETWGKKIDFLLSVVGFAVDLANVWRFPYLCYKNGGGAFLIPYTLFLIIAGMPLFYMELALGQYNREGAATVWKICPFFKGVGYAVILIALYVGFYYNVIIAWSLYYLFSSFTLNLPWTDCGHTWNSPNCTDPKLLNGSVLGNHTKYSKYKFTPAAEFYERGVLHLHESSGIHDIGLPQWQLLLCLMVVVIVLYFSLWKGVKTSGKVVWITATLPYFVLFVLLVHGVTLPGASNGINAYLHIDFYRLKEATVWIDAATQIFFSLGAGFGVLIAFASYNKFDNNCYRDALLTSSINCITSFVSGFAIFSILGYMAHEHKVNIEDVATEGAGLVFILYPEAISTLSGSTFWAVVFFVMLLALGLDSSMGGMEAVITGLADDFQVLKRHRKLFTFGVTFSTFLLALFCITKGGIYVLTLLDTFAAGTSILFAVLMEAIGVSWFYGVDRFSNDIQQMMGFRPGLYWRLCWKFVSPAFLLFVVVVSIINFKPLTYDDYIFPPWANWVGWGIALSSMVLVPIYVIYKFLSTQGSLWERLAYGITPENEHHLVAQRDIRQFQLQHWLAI

- concentration at 1 h [1]: 0.12 µM
- Kp at 1 h [2]: 1.96
- Kp at 1 h [3]: 1.74
- concentration at 1 h [4]: 0.17 µM
- EC50 [5]: 0.12 µM
- concentration at 1 h [6]: 1.29 µM
- concentration at 1 h [7]: 0.297 µM
- concentration at 1 h [8]: 0.063 µM
- Kp at 1 h [9]: 1.95
- concentration at 1 h [11]: 0.653 µM
SMILES: Cc1ccc(OC2CCN(C(=O)C(=O)Nc3ccc4c(ccn4C)c3)CC2)cc1
- Activity (Mus musculus [10]): Active

- Activity [39]: 13%
SMILES: Cc1ccc(OC2CCCN(C(=O)C(=O)Nc3ccc4c(ccn4C)c3)CC2)cc1 (stereo not given)

Continued, molecule first:

SMILES: O=C(NCc1ccc2[nH]ccc2c1)N1CC(COc2ccc(C(F)(F)F)cc2)C1
- concentration at 35 min [12]: 3.11 µM
- Activity [13]: Non-Toxic
- Activity [14]: Non-Toxic
- Activity [15]: Non-Toxic
- Activity (Rattus norvegicus [16]): Active
- Activity [17]: Non-Toxic
- Kp at 35 min [18]: 1.43
- concentration at 1 h [1]: 0.673 µM
- Kp at 35 min [19]: 1.4
- concentration at 35 min [20]: 11.1 µM
- Kp at 1 h [2]: 1.06
- Kp at 1 h [3]: 0.99
- Activity (Rattus norvegicus [21]): Active
- minimal effective dose (Mus musculus [22]): 1 mg/kg
- concentration at 35 min [23]: 1.01 µM
- Activity [24]: Non-Toxic
- concentration at 1 h [4]: 2.27 µM
- Papp A→B at 2 h, 1 µM [25]: 550 nm/s
- minimal effective dose (Rattus norvegicus [26]): 1 mg/kg
- concentration at 1 h [6]: 9.93 µM
- Activity [27]: Non-Toxic
- concentration at 35 min [28]: 2.22 µM
- concentration at 1 h [7]: 2.21 µM
- concentration at 1 h [8]: 0.647 µM
- concentration at 35 min [29]: 0.746 µM
- inhibition [30]: > 50%
- Kp at 1 h [9]: 1.04
- inhibition [31]: > 50%
- Activity [32]: Non-Toxic
- Activity [33]: Non-Toxic
- concentration at 35 min [34]: 8.02 µM
- Activity (Mus musculus [10]): Active
- concentration at 1 h [11]: 9.47 µM
- Activity [35]: Non-Toxic
- inhibition [36]: > 50%
- Activity [37]: Non-Toxic
- Kp at 35 min [38]: 1.38

SMILES: Cc1ccc(Oc2ccc(C(=O)C(=O)Nc3ccc4c(ccn4C)c3)cn2)cc1
- microsomal CLint at 1 µM [40]: 33 µL/min/mg
- concentration at 1 h [1]: 0.108 µM
- Kp at 1 h [2]: 1.53
- Kp at 1 h [3]: 1.17
- concentration at 1 h [4]: 0.417 µM
- EC50 [5]: 0.13 µM
- concentration at 1 h [6]: 1.93 µM
- concentration at 1 h [7]: 0.492 µM
- concentration at 1 h [8]: 0.104 µM
- Kp at 1 h [9]: 1.05
- solubility kinetic [41]: 3 µM (≈ 1.16 µg/mL)
- Activity (Mus musculus [10]): Active
- concentration at 1 h [11]: 1.26 µM
- microsomal CLint at 1 µM [42]: 59 µL/min/mg
- microsomal CLint at 1 µM [43]: 51 µL/min/mg

SMILES: Cc1ccc(O[C@H]2CC[C@@H](C(=O)NCc3ccc4c(ccn4C)c3)CC2)cc1
- Activity [39]: 16%
